Data taken from ChEMBL document CHEMBL3856234, “Development of Multifunctional Pyrimidinylthiourea Derivatives as Potential Anti-Alzheimer Agents” (J Med Chem, 2016).
In brackets after ≈: the same amount, converted by molar mass. Activity calls are given as the source filed them. No cut-off for these calls is given here.

tested on: not listed separately; experiment: Antioxidant activity assessed as trolox equivalent of AAPH radical scavenging activity preincubated for 10 mins followed by AAPH challenge measured every min for 180 mins by ORAC-FL assay; format: functional; details: not given

| Structure (SMILES) | Activity (umolequiv/umol) |
| --- | --- |
| CCNC(=S)Nc1cc(-n2cnc(CN3CCCC3)c2)ncn1 | 1.2 |
| CCNC(=S)Nc1cc(-n2cnc(CN(C)Cc3ccccc3)c2)ncn1 | 1.25 |
| CCNC(=S)Nc1cc(-n2cnc(CN3CCOCC3)c2)ncn1 | 1.48 |
| CCNC(=S)Nc1cc(-n2cnc(CNC)c2)ncn1 | 1.32 |
| c1cc(-n2cnc(CN3CCCC3)c2)ncn1 | -0.01 |
| CCNC(=S)Nc1cc(-n2cnc(C=O)c2)ncn1 | 0.31 |
| CCNC(=S)Nc1cc(-n2cnc(CNCc3ccccc3)c2)ncn1 | 1.3 |
| CCNC(=S)Nc1cc(-n2cnc(CN(CC)CC)c2)ncn1 | 1.31 |
| CCNC(=S)Nc1cc(-n2cnc(CN(C)C)c2)ncn1 | 1.17 |
| CCNC(=S)Nc1cc(-n2cnc(CN3CCCCC3)c2)ncn1 | 1.27 |
| CCNC(=S)Nc1cc(-n2cnc(CN3CCN(C)CC3)c2)ncn1 | 1.23 |
| CCNCc1cn(-c2cc(NC(=S)NCC)ncn2)cn1 | 1.33 |
| CCNC(=S)Nc1cc(-n2cnc(CN3CCCCCC3)c2)ncn1 | 1.24 |

species: Rattus norvegicus; experiment: Inhibition of rat serum BuChE at 40 uM using butyrylthiocholine as substrate measured after 20 mins by Ellman's method relative to control; details: not given

| Structure (SMILES) | inhibition [%] |
| --- | --- |
| CCNC(=S)Nc1cc(-n2cnc(CN3CCCC3)c2)ncn1 | 33.5 |
| CCNC(=S)Nc1cc(-n2cnc(CN3CCOCC3)c2)ncn1 | 13.3 |
| CCNC(=S)Nc1cc(-n2cnc(CNC)c2)ncn1 | 27.3 |
| CCNC(=S)Nc1cc(-n2cnc(C=O)c2)ncn1 | 4.63 |
| CCNC(=S)Nc1cc(-n2cnc(CNCc3ccccc3)c2)ncn1 | 48 |
| CCNC(=S)Nc1cc(-n2cnc(CN(CC)CC)c2)ncn1 | 20.2 |
| CCNC(=S)Nc1cc(-n2cnc(CN(C)C)c2)ncn1 | 7.02 |
| CCNC(=S)Nc1cc(-n2cnc(CN3CCN(C)CC3)c2)ncn1 | 10.8 |
| CCNCc1cn(-c2cc(NC(=S)NCC)ncn2)cn1 | 21.5 |

tested on: not listed separately; experiment: Cytotoxicity against human SH-SY5Y cells assessed as reduction in cell viability at 10 and 30 uM measured after 24 hrs by MTT assay; format: toxicity, cell-based; details: not given

| Structure (SMILES) | Activity |
| --- | --- |
| CCCN(CCC)Cc1cn(-c2cc(NC(=S)NCC)ncn2)cn1 | Non-Toxic |
| COc1cc2c(cc1OC)C(=O)C(CC1CCN(Cc3ccccc3)CC1)C2 (stereo unspecified) [DONEPEZIL] | Non-Toxic |

tested on: not listed separately; experiment: Antioxidant activity assessed as inhibition of Cu2+-induced CCA […] to 7-hydroxy-CCA by measuring decrease in hydroxyl radical production at 10 uM in presence of ascorbate by fluorescence assay; details: not given

| Structure (SMILES) | inhibition |
| --- | --- |
| CCNC(=S)Nc1cc(-n2cnc(CN3CCCC3)c2)ncn1 | Active |

tested on: not listed separately; experiment: Metal chelating activity assessed as Fe2+-compound complex formation at 40 uM measured after 1 hr by UV-vis spectroscopic analysis; format: physicochemical; details: not given

| Structure (SMILES) | Activity |
| --- | --- |
| CCCN(CCC)Cc1cn(-c2cc(NC(=S)NCC)ncn2)cn1 | Active |
| c1cc(-n2cnc(CN3CCCC3)c2)ncn1 | Active |

tested on: not listed separately; experiment: Permeability of the compound in PBS/EtOH (7:3) buffer measured after 10 hrs by PAMPA assay; format: ADME; details: read-out: Peff

| Structure (SMILES) | Papp at 10 h [×10⁻⁶ cm/s] |
| --- | --- |
| CCCN(CCC)Cc1cn(-c2cc(NC(=S)NCC)ncn2)cn1 | 7.5 |
| CCNC(=S)Nc1cc(-n2cnc(CN3CCOCC3)c2)ncn1 | 0.35 |
| CCNC(=S)Nc1cc(-n2cnc(CN(CC)CC)c2)ncn1 | 1 |
| CCNC(=S)Nc1cc(-n2cnc(CN(C)C)c2)ncn1 | 3 |
| CCNC(=S)Nc1cc(-n2cnc(CN3CCCCC3)c2)ncn1 | 5 |
| CCNC(=S)Nc1cc(-n2cnc(CN3CCN(C)CC3)c2)ncn1 | 1.95 |
| CCNC(=S)Nc1cc(-n2cnc(CN3CCCCCC3)c2)ncn1 | 5.3 |

tested on: not listed separately; experiment: Inhibition of cupric ion-induced aggregation of amyloid beta (1 to 42) (unknown origin) at 50 uM measured after 24 hrs by dot blot assay; details: not given

| Structure (SMILES) | inhibition |
| --- | --- |
| CCNC(=S)Nc1cc(-n2cnc(CN3CCCC3)c2)ncn1 | Active |

tested on: not listed separately; experiment: Metal chelating activity assessed as Zn2+-compound complex formation at 40 uM measured after 1 hr by UV-vis spectroscopic analysis; format: physicochemical; details: not given

| Structure (SMILES) | Activity |
| --- | --- |
| CCCN(CCC)Cc1cn(-c2cc(NC(=S)NCC)ncn2)cn1 | Active |
| c1cc(-n2cnc(CN3CCCC3)c2)ncn1 | Active |

tested on: not listed separately; experiment: Metal chelating activity assessed as Fe3+-compound complex formation at 40 uM measured after 1 hr by UV-vis spectroscopic analysis; format: physicochemical; details: not given

| Structure (SMILES) | Activity |
| --- | --- |
| CCCN(CCC)Cc1cn(-c2cc(NC(=S)NCC)ncn2)cn1 | Active |
| c1cc(-n2cnc(CN3CCCC3)c2)ncn1 | Active |

tested on: not listed separately; experiment: Cytotoxicity against human SH-SY5Y cells assessed as reduction in cell viability at 100 uM measured after 24 hrs by MTT assay; format: toxicity, cell-based; details: not given

| Structure (SMILES) | Activity |
| --- | --- |
| CCCN(CCC)Cc1cn(-c2cc(NC(=S)NCC)ncn2)cn1 | Toxic |
| COc1cc2c(cc1OC)C(=O)C(CC1CCN(Cc3ccccc3)CC1)C2 (stereo unspecified) [DONEPEZIL] | Toxic |

tested on: not listed separately; experiment: Solubility of the compound in water measured after 24 hrs by HPLC analysis; format: physicochemical; details: not given

| Structure (SMILES) | solubility at 24 h [µg/mL] |
| --- | --- |
| CCCN(CCC)Cc1cn(-c2cc(NC(=S)NCC)ncn2)cn1 | 58 (≈ 160 µM) |

species: Rattus norvegicus; experiment: Selectivity index, ratio of IC50 for rat serum BuChE to IC50 for rat cortex AChE; details: not given

| Structure (SMILES) | Ratio IC50 |
| --- | --- |
| CCNC(=S)Nc1cc(-n2cnc(CN3CCCC3)c2)ncn1 | > 597 |
| CCNC(=S)Nc1cc(-n2cnc(CN(C)Cc3ccccc3)c2)ncn1 | 84 |
| CCNC(=S)Nc1cc(-n2cnc(CN3CCOCC3)c2)ncn1 | > 132 |
| CCNC(=S)Nc1cc(-n2cnc(CNC)c2)ncn1 | > 159 |
| CCNC(=S)Nc1cc(-n2cnc(C=O)c2)ncn1 | > 241 |
| CCNC(=S)Nc1cc(-n2cnc(CNCc3ccccc3)c2)ncn1 | > 146 |
| CCNC(=S)Nc1cc(-n2cnc(CN(CC)CC)c2)ncn1 | > 348 |
| CCNC(=S)Nc1cc(-n2cnc(CN(C)C)c2)ncn1 | > 261 |
| CCNC(=S)Nc1cc(-n2cnc(CN3CCCCC3)c2)ncn1 | 164 |
| CCNC(=S)Nc1cc(-n2cnc(CN3CCN(C)CC3)c2)ncn1 | > 388 |
| CCNCc1cn(-c2cc(NC(=S)NCC)ncn2)cn1 | > 117 |
| CCNC(=S)Nc1cc(-n2cnc(CN3CCCCCC3)c2)ncn1 | 59 |

tested on: not listed separately; experiment: Metal chelating activity assessed as Cu2+-compound complex formation at 40 uM measured after 1 hr by UV-vis spectroscopic analysis; format: physicochemical; details: not given

| Structure (SMILES) | Activity |
| --- | --- |
| CCCN(CCC)Cc1cn(-c2cc(NC(=S)NCC)ncn2)cn1 | Active |
| c1cc(-n2cnc(CN3CCCC3)c2)ncn1 | Active |

tested on: not listed separately; experiment: Inhibition of rat serum BuChE using butyrylthiocholine as substrate measured after 20 mins by Ellman's method; details: not given

| Structure (SMILES) | IC50 [nM] |
| --- | --- |
| CCCN(CCC)Cc1cn(-c2cc(NC(=S)NCC)ncn2)cn1 | > 40000 |
| CCNC(=S)Nc1cc(-n2cnc(CN3CCOCC3)c2)ncn1 | > 40000 |
| CCNC(=S)Nc1cc(-n2cnc(CNC)c2)ncn1 | > 40000 |
| CCNC(=S)Nc1cc(-n2cnc(C=O)c2)ncn1 | > 40000 |
| CCNC(=S)Nc1cc(-n2cnc(CNCc3ccccc3)c2)ncn1 | > 40000 |
| CCNC(=S)Nc1cc(-n2cnc(CN(CC)CC)c2)ncn1 | > 40000 |
| CCNC(=S)Nc1cc(-n2cnc(CN(C)C)c2)ncn1 | > 40000 |
| CCNC(=S)Nc1cc(-n2cnc(CN3CCCCC3)c2)ncn1 | 18200 |
| CCNC(=S)Nc1cc(-n2cnc(CN3CCN(C)CC3)c2)ncn1 | > 40000 |
| CCNCc1cn(-c2cc(NC(=S)NCC)ncn2)cn1 | > 40000 |
| CCNC(=S)Nc1cc(-n2cnc(CN3CCCCCC3)c2)ncn1 | 7190 |

tested on: not listed separately; experiment: Inhibition of cupric ion-induced aggregation of amyloid beta (1 to 42) (unknown origin) at compound:amyloid beta (1 to 42):Cu2+ ratio of 2:1:1 measured after 24 hrs by TEM analysis; details: not given

| Structure (SMILES) | inhibition |
| --- | --- |
| CCNC(=S)Nc1cc(-n2cnc(CN3CCCC3)c2)ncn1 | Active |

tested on: not listed separately; experiment: Cytotoxicity against human SH-SY5Y cells assessed as reduction in cell viability after 24 hrs in presence of Cu2+ ion by MTT assay; format: toxicity, cell-based; details: not given

| Structure (SMILES) | Activity |
| --- | --- |
| CCCN(CCC)Cc1cn(-c2cc(NC(=S)NCC)ncn2)cn1 | Non-Toxic |

tested on: SH-SY5Y; experiment: Neuroprotective activity in human SH-SY5Y cells assessed as protection against Cu2+ induced amyloid-beta (1 to 42) neurotoxicity by measuring increase in cell viability at compound:amyloid-beta (1 to 42):Cu2+ ratio of 2:1:1 after 24 hrs by MTT assay relative to control; format: functional, cell-based; details: not given

| Structure (SMILES) | Activity |
| --- | --- |
| CCNC(=S)Nc1cc(-n2cnc(CN3CCCC3)c2)ncn1 | Active |

target: T1, Acetylcholinesterase (Rattus norvegicus, UniProt P37136); experiment: Inhibition of rat cortex AChE using acetylthiocholine iodide as substrate measured after 20 mins by Ellman's method; details: not given
T1 sequence (P37136 whole entry): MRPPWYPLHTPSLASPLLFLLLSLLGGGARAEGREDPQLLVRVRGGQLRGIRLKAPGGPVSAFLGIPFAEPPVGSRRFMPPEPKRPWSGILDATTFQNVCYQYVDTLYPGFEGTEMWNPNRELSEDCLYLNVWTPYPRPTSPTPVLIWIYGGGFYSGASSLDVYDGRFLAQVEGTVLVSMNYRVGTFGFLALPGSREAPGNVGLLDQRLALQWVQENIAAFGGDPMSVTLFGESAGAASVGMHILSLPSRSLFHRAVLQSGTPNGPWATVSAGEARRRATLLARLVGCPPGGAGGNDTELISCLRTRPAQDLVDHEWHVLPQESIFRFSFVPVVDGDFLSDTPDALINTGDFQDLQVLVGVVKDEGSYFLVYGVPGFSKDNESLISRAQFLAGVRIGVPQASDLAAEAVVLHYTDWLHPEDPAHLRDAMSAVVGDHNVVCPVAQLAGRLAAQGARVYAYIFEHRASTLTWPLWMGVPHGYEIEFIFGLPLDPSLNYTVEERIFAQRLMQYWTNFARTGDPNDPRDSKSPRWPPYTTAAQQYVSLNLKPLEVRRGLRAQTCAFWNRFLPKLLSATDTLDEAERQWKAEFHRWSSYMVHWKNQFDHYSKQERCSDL

| Structure (SMILES) | IC50 [nM] |
| --- | --- |
| CCCN(CCC)Cc1cn(-c2cc(NC(=S)NCC)ncn2)cn1 | 204 |
| CCNC(=S)Nc1cc(-n2cnc(CN3CCOCC3)c2)ncn1 | 304 |
| CCNC(=S)Nc1cc(-n2cnc(CNC)c2)ncn1 | 251 |
| CCNC(=S)Nc1cc(-n2cnc(C=O)c2)ncn1 | 166 |
| CCNC(=S)Nc1cc(-n2cnc(CNCc3ccccc3)c2)ncn1 | 274 |
| CCNC(=S)Nc1cc(-n2cnc(CN(CC)CC)c2)ncn1 | 115 |
| CCNC(=S)Nc1cc(-n2cnc(CN(C)C)c2)ncn1 | 153 |
| CCNC(=S)Nc1cc(-n2cnc(CN3CCCCC3)c2)ncn1 | 111 |
| CCNC(=S)Nc1cc(-n2cnc(CN3CCN(C)CC3)c2)ncn1 | 103 |
| CCNCc1cn(-c2cc(NC(=S)NCC)ncn2)cn1 | 342 |
| CCNC(=S)Nc1cc(-n2cnc(CN3CCCCCC3)c2)ncn1 | 121 |
